{"source": "paper PMC6173055", "about": "“Structure and function of a glycoside hydrolase family 8 endoxylanase from Teredinibacter turnerae” (Acta Crystallographica. Section D, Structural Biology, 2018)", "molecular_target": "T1, TtGH8 (Teredinibacter turnerae, UniProt C5BJ89)", "T1 construct": "gene TERTU_4506; catalytic domain, residues 41-436; signal peptide and linker removed; N-terminal His6 tag cut off with 3C protease; codon-optimised, expressed in E. coli BL21", "T1 sequence (C5BJ89 entry or part of it)": "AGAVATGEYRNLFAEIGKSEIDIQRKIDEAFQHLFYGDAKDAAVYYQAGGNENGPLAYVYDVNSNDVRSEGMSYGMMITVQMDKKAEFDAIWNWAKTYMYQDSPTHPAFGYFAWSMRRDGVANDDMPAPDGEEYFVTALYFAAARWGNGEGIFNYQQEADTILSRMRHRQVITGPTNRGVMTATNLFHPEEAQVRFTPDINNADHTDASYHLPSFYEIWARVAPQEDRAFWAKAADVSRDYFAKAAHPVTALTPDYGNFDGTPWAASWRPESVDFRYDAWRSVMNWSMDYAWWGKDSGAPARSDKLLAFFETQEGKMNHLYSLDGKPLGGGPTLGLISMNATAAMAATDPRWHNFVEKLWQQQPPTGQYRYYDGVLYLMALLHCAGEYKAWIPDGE", "test": "thermal shift (SYPRO Orange)", "type": "binding", "conditions": "10 mM ligand"}
{"smiles": "OC1OC[C@@H](O[C@@H]2OC[C@@H](O[C@@H]3OC[C@@H](O[C@@H]4OC[C@@H](O[C@@H]5OC[C@@H](O[C@@H]6OC[C@@H](O)[C@H](O)[C@H]6O)[C@H](O)[C@H]5O)[C@H](O)[C@H]4O)[C@H](O)[C@H]3O)[C@H](O)[C@H]2O)[C@H](O)[C@H]1O", "note": "(stereo partly shown) [X6, xylohexaose]", "values": [{"measurement": "increase in melting temperature", "value": 2.9, "unit": "°C"}]}
